Measured values reported in patent US11731964B2, “Benzamide antibacterial agents” (Purdue Research Foundation, priority 2018, dated 2023).
≈ marks a conversion by molar mass, not a printed value. Like-named read-outs stand apart in the source and are kept apart here.

Legend:
[1] = test system: Escherichia coli JW5503-1 (ΔtolC); assay: MIC against Gram-negative pathogens (efflux pump knockout); type: cell-based
Experimental: (§1) Bacteria were cultured in cation-adjusted Mueller Hinton Broth (for strains in Tables 1 and 4) or Brain Heart Infusion broth (for Enterococcus faecium) or Tryptic Soy Broth (all other bacteria) in a 96-well plate at 37° C. for at least 20 hours. The MIC was classified as the lowest concentration where no visual growth of bacteria was observed. The minimum bactericidal concentration (MBC) was tested by spotting 4 μL from wells with no growth onto Tryptic Soy Agar (TSA) plates. Plates were incubated at 37° C. for at least 18 hours before recording the MBC.

Escherichia coli BW25113 = assay: MIC against Gram-negative pathogens; type: cell-based
Experimental: as §1

[2] = test system: C. difficile NR-32891 (P13); assay: Clostridium difficile inhibition analysis; type: cell-based; conditions: Table 7, C. difficile NR-32891 (P13)
[3] = test system: C. difficile NR-32904 (P30); assay: Clostridium difficile inhibition analysis; type: cell-based; conditions: Table 7, C. difficile NR-32904 (P30)
[4] = test system: C. difficile NR-13435 (isolate 9); assay: Clostridium difficile inhibition analysis; type: cell-based; conditions: Table 7, C. difficile NR-13435 (isolate 9)
[5] = test system: C. difficile NR-32895 (P19); assay: Clostridium difficile inhibition analysis; type: cell-based; conditions: Table 7, C. difficile NR-32895 (P19)
MRSA ATCC 33592 = assay: MIC, broth microdilution; type: cell-based; conditions: Staphylococcus aureus; MRSA ATCC 33592; read-out: MIC
Experimental: as §1

[6] = test system: C. difficile NR-32883 (P2); assay: Clostridium difficile inhibition analysis; type: cell-based; conditions: Table 7, C. difficile NR-32883 (P2)
[7] = test system: Clostridium difficile ATCC 43255; assay: Clostridium difficile inhibition analysis; type: cell-based; conditions: Table 7, C. difficile ATCC 43255
L. monocytogenes = assay: MIC (Table 5, strain not given); type: cell-based; conditions: Listeria monocytogenes; L. monocytogenes (Table 5)
Experimental: as §1

S. aureus = assay: MIC (Table 5, strain not given); type: cell-based; conditions: Staphylococcus aureus; S. aureus (Table 5)
Experimental: as §1

VRE = assay: MIC (Table 5, strain not given); type: cell-based; conditions: Enterococcus; VRE (Table 5)
Experimental: as §1

E. faecalis = assay: MIC (Table 5, strain not given); type: cell-based; conditions: Enterococcus faecalis; E. faecalis (Table 5)
Experimental: as §1

[8] = test system: C. difficile NR-13432 (isolate 6); assay: Clostridium difficile inhibition analysis; type: cell-based; conditions: Table 7, C. difficile NR-13432 (isolate 6)
VISA NRS1 = assay: MIC and MBC; type: cell-based, S. aureus; conditions: Staphylococcus aureus, VISA NRS1
Experimental: as §1

VRSA VRS12 = assay: MIC and MBC; type: cell-based, S. aureus; conditions: Staphylococcus aureus, VRSA VRS12
Experimental: as §1

MRSA NRS386 (USA700) = assay: MIC and MBC; type: cell-based; conditions: Staphylococcus aureus, MRSA NRS386 (USA700)
Experimental: as §1

E. faecium ATCC = assay: MIC and MBC; type: cell-based; conditions: Enterococcus faecium, E. faecium ATCC
Experimental: as §1

MRSA NRS384 (USA300) = assay: MIC and MBC; type: cell-based; conditions: Staphylococcus aureus, MRSA NRS384 (USA300)
Experimental: as §1

MRSA NRS123 (USA400) = assay: MIC and MBC; type: cell-based; conditions: Staphylococcus aureus, MRSA NRS123 (USA400)
Experimental: as §1

MRSA NRS387 (USA800) = assay: MIC and MBC; type: cell-based; conditions: Staphylococcus aureus, MRSA NRS387 (USA800)
Experimental: as §1

MRSA NRS385 (USA500) = assay: MIC and MBC; type: cell-based; conditions: Staphylococcus aureus, MRSA NRS385 (USA500)
Experimental: as §1

MRSA USA300 = assay: Time-kill analysis; type: cell-based, Staphylococcus aureus
Experimental: The time-kill analysis was performed as previously described^29. […] Aliquots (100 μL) were collected from each treatment after 0, 2, 4, 8, 12, and 24 hours of incubation at 37° C. and subsequently serially diluted in phosphate-buffered saline (PBS). Bacteria were then transferred to TSA plates and incubated at 37° C. for 18-20 hours before viable CFU/mL was determined.

MRSA NRS119 = assay: MIC and MBC; type: cell-based, Staphylococcus aureus; conditions: MRSA NRS119
Experimental: as §1

CC[C@H]1OC(=O)[C@H](C)[C@@H](O[C@H]2C[C@@](C)(OC)[C@@H](O)[C@H](C)O2)[C@H](C)[C@@H](O[C@@H]2O[C@H](C)C[C@H](N(C)C)[C@H]2O)[C@](C)(O)C[C@@H](C)C(=O)[C@H](C)[C@@H](O)[C@]1(C)O [Erythromycin]
MIC [1]: ≤ 1 µg/mL | MIC (Escherichia coli BW25113; Escherichia coli BW25113 (wild-type), read-out: MIC): 32 µg/mL (≈ 43.6 µM)

C[C@@H]1C[C@H](C)CN(S(=O)(=O)c2ccc(C(=O)Nc3nnc(-c4ccc(C(F)(F)F)cc4)o3)cc2)C1 [HSGN-94, 4-(((3S,5R)-3,5-dimethylpiperidin-1-yl)sulfonyl)-N-(5-(4-(trifluoromethyl)phenyl)-1,3,4-oxadiazol-2-yl)benzamide]
Antibacterial activity [2]: 0.125 | Antibacterial activity [3]: 0.125 | Antibacterial activity [4]: 0.06 | Antibacterial activity [5]: 0.06 | MIC (MRSA ATCC 33592): 0.25 µg/mL (≈ 0.492 µM) | Antibacterial activity [6]: 0.06 | Antibacterial activity [7]: 0.06 | MIC (L. monocytogenes): 0.5 µg/mL (≈ 0.983 µM) | MIC (S. aureus): 0.25 µg/mL (≈ 0.492 µM) | MIC (VRE): 1 µg/mL (≈ 1.97 µM) | MIC (E. faecalis): 2 µg/mL (≈ 3.93 µM) | Antibacterial activity [8]: 0.06

CC(=O)NC[C@H]1CN(c2ccc(N3CCOCC3)c(F)c2)C(=O)O1 [Linezolid]
MIC [1]: 8 µg/mL (≈ 23.7 µM) | MBC (VISA NRS1; read-out: MBC): 1 µg/mL (≈ 2.96 µM) | MIC (VISA NRS1; read-out: MIC): ≤ 1 µg/mL | MBC (VRSA VRS12; read-out: MBC): 32 µg/mL (≈ 94.9 µM) | MIC (VRSA VRS12; read-out: MIC): ≤ 1 µg/mL | MBC (MRSA NRS386 (USA700); read-out: MBC): 128 µg/mL (≈ 379 µM) | MIC (MRSA NRS386 (USA700); read-out: MIC): ≤ 1 µg/mL | MBC (E. faecium ATCC; read-out: MBC): 64 µg/mL (≈ 190 µM) | MIC (E. faecium ATCC; read-out: MIC): ≤ 1 µg/mL | MBC (MRSA NRS384 (USA300); read-out: MBC): 64 µg/mL (≈ 190 µM) | MIC (MRSA NRS384 (USA300); read-out: MIC): ≤ 1 µg/mL | MBC (MRSA NRS123 (USA400); read-out: MBC): 64 µg/mL (≈ 190 µM) | MIC (MRSA NRS123 (USA400); read-out: MIC): ≤ 1 µg/mL | MBC (MRSA NRS387 (USA800); read-out: MBC): 128 µg/mL (≈ 379 µM) | MIC (MRSA NRS387 (USA800); read-out: MIC): ≤ 1 µg/mL | MBC (MRSA NRS385 (USA500); read-out: MBC): 2 µg/mL (≈ 5.93 µM) | MIC (MRSA NRS385 (USA500); read-out: MIC): ≤ 1 µg/mL | reduction in MRSA USA300 (time-kill) (MRSA USA300; 3×MIC, after a 24-hour incubation period): 2.16 log10 | in vitro effect against MRSA USA300 (MRSA USA300; time-kill analysis and MBC): bacteriostatic | MIC (Escherichia coli BW25113; Escherichia coli, BW25113): > 128 µg/mL | MIC (MRSA NRS119): inactive | MBC (MRSA NRS119; Staphylococcus aureus, read-out: MBC): 32 µg/mL (≈ 94.9 µM) | MIC (MRSA NRS119; Staphylococcus aureus, read-out: MIC): 32 µg/mL (≈ 94.9 µM)
